In patent US12139492B2 (Endotarget Inc., priority 2021, dated 2024):
Read-outs that look alike come from different tables or passages of the source.

How the values were obtained:
BTK = BTK (Homo sapiens, UniProt Q06187); assay: Degradation of BTK protein in Namalwa cells (Western blot; DC50, Dmax); conditions: for DC50: cell line not given
Mino cells = assay: Antiproliferative effect, MTS cell viability assay, Mino cells; type: cell-based; conditions: Homo sapiens, MINO, Mino mantle cell lymphoma cells; read-out: IC50 (anti-proliferation) Mino cells
Method in brief: (§1)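 Readout was MTS-derived formazan absorbance (490 nm) reflecting metabolically active cells. Treatment lasted 72 h over a 0–10 μM range (0.001, 0.01, 0.1, 1, 10 μM) in JeKo-1 and Mino B-cell malignancy cells.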

JeKo-1 cells = assay: Antiproliferative effect, MTS cell viability assay, JeKo-1 cells; type: cell-based; conditions: Homo sapiens; JeKo-1 mantle cell lymphoma cells; read-out: IC50 (anti-proliferation) JeKO-1 cells
Method in brief: as §1

[1] = read-out: DC50 (BTK degradation), concentration giving 50% reduction of BTK expression level
[2] = read-out: Dmax (BTK degradation)

Sequence of BTK (Q06187 whole entry): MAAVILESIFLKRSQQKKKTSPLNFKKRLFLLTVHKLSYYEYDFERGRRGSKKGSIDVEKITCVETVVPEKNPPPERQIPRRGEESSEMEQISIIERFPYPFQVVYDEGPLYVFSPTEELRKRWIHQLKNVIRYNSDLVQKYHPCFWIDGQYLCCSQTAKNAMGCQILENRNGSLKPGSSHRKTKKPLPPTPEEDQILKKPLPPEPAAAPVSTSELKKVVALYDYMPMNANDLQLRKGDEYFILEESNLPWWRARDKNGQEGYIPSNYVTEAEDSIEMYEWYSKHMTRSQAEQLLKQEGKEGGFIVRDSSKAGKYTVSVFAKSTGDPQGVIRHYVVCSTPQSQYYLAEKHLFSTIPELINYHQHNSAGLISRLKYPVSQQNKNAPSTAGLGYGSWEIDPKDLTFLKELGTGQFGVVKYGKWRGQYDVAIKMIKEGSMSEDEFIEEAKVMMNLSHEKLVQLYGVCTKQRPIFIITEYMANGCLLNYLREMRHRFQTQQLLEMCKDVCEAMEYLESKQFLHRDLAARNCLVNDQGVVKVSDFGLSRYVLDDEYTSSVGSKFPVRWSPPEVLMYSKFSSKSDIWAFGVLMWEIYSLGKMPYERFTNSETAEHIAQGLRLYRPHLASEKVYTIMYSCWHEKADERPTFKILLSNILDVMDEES

SMILES	DC50 (BTK; [1]) [nM]	Dmax (BTK; [2]) [%]	IC50 (Mino cells) [nM]	IC50 (JeKo-1 cells) [nM]	Dmax (BTK) [%]	DC50 (BTK; BTK degradation) [nM]	degradation of BTK protein (BTK; Namalwa B lymphocyte cells, various concentrations, 24 hours, Western blot)
Nc1ncnc2c1c(-c1ccc(Oc3ccccc3)cc1)nn2C1CCN(CCN2CCC(CN3CCN(c4ccc5c(c4)CN(C4CCC(=O)NC4=O)C5=O)CC3)C2)CC1 (stereo not drawn) [Compound 456, 3-(5-(4-((1-(2-(4-(4-amino-3-(4-phenoxyphenyl)-1H-pyrazolo[3,4-d]pyrimidin-1-yl)piperidin-1-yl)ethyl)pyrrolidin-3-yl)methyl)piperazin-1-yl)-1-oxoisoindolin-2-yl)piperidine-2,6-dione]	10 to 50	> 75	1000 to 10000	1000 to 10000			
NC(=O)c1c(-c2ccc(Oc3ccccc3)cc2)nn2c1NCCC2C1CCN(CC2CCN(C(=O)N3CCN(Cc4ccc5c(c4)CN(C4CCC(=O)NC4=O)C5=O)CC3)CC2)CC1 (stereo not drawn) [Compound 360, 7-(1-((1-(4-((2-(2,6-dioxopiperidin-3-yl)-1-oxoisoindolin-5-yl)methyl)piperazine-1-carbonyl)piperidin-4-yl)methyl)piperidin-4-yl)-2-(4-phenoxyphenyl)-4,5,6,7-tetrahydropyrazolo[1,5-a]pyrimidine-3-carboxamide]			> 10000	> 10000	> 75	> 50	
Nc1ncnc2c1c(-c1ccc(Oc3ccccc3)cc1)nn2C1CCN(CC2CCN(CCCC3CCN(c4ccc5c(c4)CN(C4CCC(=O)NC4=O)C5=O)CC3)CC2)CC1 (stereo not drawn) [Compound 212, 3-(5-(4-(3-(4-((4-(4-amino-3-(4-phenoxyphenyl)-1H-pyrazolo[3,4-d]pyrimidin-1-yl)piperidin-1-yl)methyl)piperidin-1-yl)propyl)piperidin-1-yl)-1-oxoisoindolin-2-yl)piperidine-2,6-dione]			1000 to 10000	> 10000	> 90	10 to 50	
Nc1ncnc2c1c(-c1ccc(Oc3ccccc3)cc1)nn2C1CCN(CCN2CCC(N3CCN(c4ccc5c(c4)C(=O)N(C4CCC(=O)NC4=O)C5=O)CC3)C2)CC1 (single isomer, unassigned) [Compound 459a, 5-(4-(1-(2-(4-(4-amino-3-(4-phenoxyphenyl)-1H-pyrazolo[3,4-d]pyrimidin-1-yl)piperidin-1-yl)ethyl)pyrrolidin-3-yl)piperazin-1-yl)-2-(2,6-dioxopiperidin-3-yl)isoindoline-1,3-dione]	10 to 50	> 90	< 1000	< 1000			
NC(=O)c1c(-c2ccc(Oc3ccccc3)cc2)nn2c1NCC[C@H]2C1CCN(CC2CCN(C(=O)N3CCN(CC4CCN(c5ccc6c(c5)CN(C5CCC(=O)NC5=O)C6=O)CC4)CC3)CC2)CC1 (stereo partly drawn) [Compound 412, (7S)-7-(1-((1-(4-((1-(2-(2,6-dioxopiperidin-3-yl)-1-oxoisoindolin-5-yl)piperidin-4-yl)methyl)piperazine-1-carbonyl)piperidin-4-yl)methyl)piperidin-4-yl)-2-(4-phenoxyphenyl)-4,5,6,7-tetrahydropyrazolo[1,5-a]pyrimidine-3-carboxamide]	10 to 50	> 90	1000 to 10000	< 1000			
NC(=O)c1c(-c2ccc(Oc3ccccc3)cc2)nn2c1NCCC2C1CCN(C2CCN(C(=O)N3CCC(CN4CCN(c5ccc6c(c5)CN(C5CCC(=O)NC5=O)C6=O)CC4)CC3)CC2)CC1 (stereo not drawn) [Compound 350, 7-(1′-(4-((4-(2-(2,6-dioxopiperidin-3-yl)-1-oxoisoindolin-5-yl)piperazin-1-yl)methyl)piperidine-1-carbonyl)-[1,4′-bipiperidin]-4-yl)-2-(4-phenoxyphenyl)-4,5,6,7-tetrahydropyrazolo[1,5-a]pyrimidine-3-carboxamide]			< 1000	1000 to 10000	> 90	< 10	
NC1=NC=NC2C1C(c1ccc(Oc3ccccc3)cc1)=NN2[C@@H]1CCCN(C(=O)N2CCN(C3CN(c4ccc5c(c4)C(=O)N(C4CCC(=O)NC4=O)C5=O)C3)CC2)C1 (stereo partly drawn) [Compound 505, 5-(3-(4-((3R)-3-(4-amino-3-(4-phenoxyphenyl)-3a,7a-dihydro-1H-pyrazolo[3,4-d]pyrimidin-1-yl)piperidine-1-carbonyl)piperazin-1-yl)azetidin-1-yl)-2-(2,6-dioxopiperidin-3-yl)isoindoline-1,3-dione]	10 to 50	> 75	< 1000	< 1000			
Nc1ncnc2c1c(-c1ccc(Oc3ccccc3)cc1)nn2C1CCN(CCC#Cc2ccc(N3CCC(=O)NC3=O)cc2)CC1 [Compound 540, 1-(4-(4-(4-(4-amino-3-(4-phenoxyphenyl)-1H-pyrazolo[3,4-d]pyrimidin-1-yl)piperidin-1-yl)but-1-yn-1-yl)phenyl)dihydropyrimidine-2,4(1H,3H)-dione]	> 50	> 50	> 10000	> 10000			
Nc1ncnc2c1c(-c1ccc(Oc3ccccc3)cc1)nn2C1CCN(C[C@H]2CCN(CC3CN(CC4CN(c5ccc6c(c5)C(=O)N(C5CCC(=O)NC5=O)C6=O)C4)C3)C2)CC1 (stereo partly drawn) [Compound 427a, 5-(3-((3-(((R)-3-((4-(4-amino-3-(4-phenoxyphenyl)-1H-pyrazolo[3,4-d]pyrimidin-1-yl)piperidin-1-yl)methyl)pyrrolidin-1-yl)methyl)azetidin-1-yl)methyl)azetidin-1-yl)-2-(2,6-dioxopiperidin-3-yl)isoindoline-1,3-dione]	> 50	> 90	1000 to 10000	1000 to 10000			
NC(=O)c1c(-c2ccc(Oc3ccccc3)cc2)nn2c1NCCC2C1CCN(C2CCN(C(=O)N3CCC(N4CCN(c5ccc6c(c5)C(=O)N(C5CCC(=O)NC5=O)C6=O)CC4)CC3)CC2)CC1 (stereo not drawn) [Compound 341, 7-(1′-(4-(4-(2-(2,6-dioxopiperidin-3-yl)-1,3-dioxoisoindolin-5-yl)piperazin-1-yl)piperidine-1-carbonyl)-[1,4′-bipiperidin]-4-yl)-2-(4-phenoxyphenyl)-4,5,6,7-tetrahydropyrazolo[1,5-a]pyrimidine-3-carboxamide]			1000 to 10000	< 1000	> 90	10 to 50	
NC(=O)c1c(-c2ccc(Oc3ccccc3)cc2)nn2c1NCC[C@H]2C1CCN(C(=O)N2CCC(CN3CCN(c4ccc5c(c4)CN(C4CCC(=O)NC4=O)C5=O)CC3)CC2)CC1 (stereo partly drawn) [Compound 292, (7S)-7-(1-(4-((4-(2-(2,6-dioxopiperidin-3-yl)-1-oxoisoindolin-5-yl)piperazin-1-yl)methyl)piperidine-1-carbonyl)piperidin-4-yl)-2-(4-phenoxyphenyl)-4,5,6,7-tetrahydropyrazolo[1,5-a]pyrimidine-3-carboxamide]			< 1000	< 1000	> 90	< 10	
Nc1ncnc2c1c(-c1ccc(Oc3ccccc3)cc1)nn2C1CCN(C2CCN(CC3CCN(c4ccc5c(c4)CN(C4CCC(=O)NC4=O)C5=O)C3)C2)CC1 (stereo not drawn) [Compound 452, 3-(5-(3-((3-(4-(4-amino-3-(4-phenoxyphenyl)-1H-pyrazolo[3,4-d]pyrimidin-1-yl)piperidin-1-yl)pyrrolidin-1-yl)methyl)pyrrolidin-1-yl)-1-oxoisoindolin-2-yl)piperidine-2,6-dione]	10 to 50	> 75	< 1000	1000 to 10000			
NC(=O)c1c(-c2ccc(Oc3ccccc3)cc2)nn2c1NCCC2C1CCN(C(=O)N2CCC(CC3CCN(c4ccc5c(c4)CN(C4CCC(=O)NC4=O)C5=O)CC3)CC2)CC1 (stereo not drawn) [Compound 278, 7-(1-(4-((1-(2-(2,6-dioxopiperidin-3-yl)-1-oxoisoindolin-5-yl)piperidin-4-yl)methyl)piperidine-1-carbonyl)piperidin-4-yl)-2-(4-phenoxyphenyl)-4,5,6,7-tetrahydropyrazolo[1,5-a]pyrimidine-3-carboxamide]			< 1000	1000 to 10000	> 90	< 10	
NC(=O)c1c(-c2ccc(Oc3ccccc3)cc2)nn2c1NCCC2C1CCN(C(=O)N2CCN(CCN3CCC(c4ccc5c(c4)C(=O)N(C4CCC(=O)NC4=O)C5=O)CC3)CC2)CC1 (stereo not drawn) [Compound 287]			1000 to 10000	> 10000	> 75	10 to 50	
Nc1ncnc2c1c(-c1ccc(Oc3ccccc3)cc1)nn2C1CCN(C2CCN(CC3CCN(c4ccc5c(c4)C(=O)N(C4CCC(=O)NC4=O)C5=O)C3)C2)CC1 (stereo not drawn) [Compound 451, 5-(3-((3-(4-(4-amino-3-(4-phenoxyphenyl)-1H-pyrazolo[3,4-d]pyrimidin-1-yl)piperidin-1-yl)pyrrolidin-1-yl)methyl)pyrrolidin-1-yl)-2-(2,6-dioxopiperidin-3-yl)isoindoline-1,3-dione]	< 10	> 90	< 1000	1000 to 10000			dose-dependent degradation
Nc1ncnc2c1c(-c1ccc(Oc3ccccc3)cc1)nn2C1CCN(CCCN2CCC(CN3CCC(c4ccc(N5CCC(=O)NC5=O)cc4)CC3)C2)CC1 (stereo not drawn) [Compound 550, 1-(4-(1-((1-(3-(4-(4-amino-3-(4-phenoxyphenyl)-1H-pyrazolo[3,4-d]pyrimidin-1-yl)piperidin-1-yl)propyl)pyrrolidin-3-yl)methyl)piperidin-4-yl)phenyl)dihydropyrimidine-2,4(1H,3H)-dione]	10 to 50	> 90	< 1000	< 1000			
Nc1ncnc2c1c(-c1ccc(Oc3ccccc3)cc1)nn2[C@@H]1CCCN(C2CN(C(=O)N3CCC(N4CCN(c5ccc6c(c5)C(=O)N(C5CCC(=O)NC5=O)C6=O)CC4)CC3)C2)C1 (stereo partly drawn) [Compound 481, 5-(4-(1-(3-((R)-3-(4-amino-3-(4-phenoxyphenyl)-1H-pyrazolo[3,4-d]pyrimidin-1-yl)piperidin-1-yl)azetidin-1-carbonyl)piperidin-4-yl)piperazin-1-yl)-2-(2,6-dioxopiperidin-3-yl)isoindoline-1,3-dione]	< 10	> 90	1000 to 10000	1000 to 10000			
